The text below walks through data of patent US8114895B2, “Use of bipyridine compound ‘Caerulomycin A’ derivatives and analogs thereof as immunosuppressive agents” (Council of Science and Industrial Research, priority 2005, dated 2012).

The subject of this assay is CD4^+ T cells. Briefly: Proliferation of CD4+ T cells obtained from antigen-primed animals. It is filed as cell-based. Conditions: CD4+ T cells from OVA-FCA injected mice, stimulated with antigen-pulsed γ-irradiated splenocytes. How it is done:
A single cell suspension of mice splenocytes obtained from OVA-CFA primed mice. The red blood cells were depleted by treatment with hemolytic Gey's solution. The adherent cells were removed by plating onto plastic Petri plates for 2 h at 37° C. and 7% CO2. The non-adherent cells were loaded (1×10^6 cells/ml) onto the nylon wool column and incubated for 90 min at 37° C. After the incubation period, warm RPMI was passed into the column to elute T lymphocytes. The T cells were washed with RPMI and incubated with anti-Mac3 (TIB-168), anti-IA^d (MKD6), anti-dendritic cell (TIB-227), anti-IgM and anti-CD8 Abs for 45 min at 4° C. […] The purity of the cells was analyzed by flow-cytometry of the cells stained with anti-CD3 and CD4 Abs. […]
Examples establishing the role of Caerulomycin A [isolated from a novel species of Actinoalloteichus] in inducing immunosuppression based on the following: • Splenocytes of BALB/c mice were stimulated with either ConA (1 μg/ml and 2 μg/ml) or LPS (5 μg/ml and 10 μg/ml) and were cultured with different concentrations of Caerulomycin A (0.0003-0.1 μg/ml). […] Radioactivity incorporated was measured by liquid scintillation counting. • Antigen ovalbumin (100 μg/ml) emulsified in Freund's complete adjuvant was injected in a group consisting of 5 BALB/c mice. […] Radioactivity incorporated was measured by liquid scintillation. […]

In the case of `COc1cc(/C=N/O)nc(-c2ccccn2)c1` [Caerulomycin A, (E)-4-methoxy-2,2′-bipyridine-6-carbaldehyde oxime], the “proliferation of antigen stimulated CD4+ T cells” value was “significantly suppressed the proliferation”.
